Experimental data taken from ChEMBL document CHEMBL1156829 (Proc Natl Acad Sci U S A, 2008).

Tests used:
[1] = NOVARTIS: Cytotoxicity against human hepatocellular carcinoma cell line (Huh7); format: toxicity, cell-based, Huh-7; conditions: Huh7 cells (hepatocellular carcinoma cell line)
Plasmodium falciparum [2] = assay: NOVARTIS: Inhibition of Plasmodium falciparum 3D7 (drug-susceptible) proliferation in erythrocyte-based infection assay; format: functional, organism-based; conditions: Plasmodium falciparum, 3D7
Plasmodium falciparum [3] = assay: NOVARTIS: Inhibition of Plasmodium falciparum W2 (drug-resistant) proliferation in erythrocyte-based infection assay; format: functional, organism-based; conditions: Plasmodium falciparum, W2; read-out: EC50

| SMILES | CC50 [1] | EC50 (Plasmodium falciparum [2]) | EC50 (Plasmodium falciparum [3]) |
| --- | --- | --- | --- |
| Cn1c(C(=O)c2cccc3ccccc23)nc2ccccc21 | 21500 nM | 6.92 nM | 32.6 nM |
| Clc1ccc(CCNC2CCN(CCc3ccccc3)CC2)cc1 | 9600 nM | 150 nM | 696 nM |
| O=C(Nc1ccc(Oc2ccccc2)cc1)NC(CN1CCCC1)c1ccccc1 (stereo not given) | 13600 nM | 355 nM | 476 nM |
| O=C(NCCCN1CCCC1=O)c1cnc(N2CCN(Cc3ccccc3)CC2)nc1NCCc1ccccc1 | > 10000 nM | 572 nM | 699 nM |
| Cc1ccc2c(c1)c(-c1ccccc1)c(-c1ccccc1)n2CC(O)CN1CCN(Cc2ccccc2)CC1 (stereo not given) | > 100000 nM | 824 nM | 84.5 nM |
| Cc1cc(Nc2ccc(Br)c(C)c2)n2nc(C)nc2n1 | > 100000 nM | 53 nM | 45.8 nM |
| Cc1ccc(NC(=O)c2sc3nc4c(c(-c5ccc(C)cc5)c3c2N)CCC4)cc1 | > 100000 nM | 2790 nM | 8940 nM |
| NC(=O)/C(=C\c1cccc2ccccc12)NC(=O)c1ccccc1 | > 10000 nM | > 1140 nM | > 1250 nM |
| COc1cccc(-c2ccc(O)c(CN3CCCCC3)c2)n1 | > 95800 nM | 469 nM | 54.7 nM |
| CC(C)(C)c1ccc2[nH]c3c(c2c1)CCCC3=NO | 20900 nM | 5020 nM | 831 nM |
| COc1ccc(CN(Cc2cc3cc(OC)c(OC)cc3[nH]c2=O)C(=S)NCCc2ccc(OC)c(OC)c2)cc1 | 35700 nM | 5580 nM | 1040 nM |
| N#Cc1ccc(N2CCCN(C(=S)NC3CCCC3)CC2)nc1 | > 100000 nM | 650 nM | 330 nM |
| CCCCCCOc1ccc(C(C)=NNC2=NCCN2)cc1[N+](=O)[O-] | 7320 nM | 228 nM | 791 nM |
| Cc1ccc(NC2=C(c3ccc(C(F)(F)F)cc3)C(=O)c3ccccc32)cc1F | > 100000 nM | 541 nM | 790 nM |
| Cc1ccnc(Nc2nc(-c3ccc(Cl)cc3)cs2)c1 | > 100000 nM | 4510 nM | > 12500 nM |
| COc1ccc(/C=C(/C#N)C(=O)Nc2cccc3ccccc23)cc1 | > 10000 nM | > 1160 nM | > 241 nM |
| O=C(Nc1ccc(-n2cnnn2)cc1)C1CCN(Cc2ccc(OC(F)F)cc2)CC1 | 46300 nM | 1590 nM | 266 nM |
| O=C(NC(=CC=Cc1ccccc1)C(=O)N1CCOCC1)c1ccccc1 | > 100000 nM | 3860 nM | 122 nM |
| Brc1ccc2[nH]c3c(NCCCN4CCOCC4)ncnc3c2c1 | > 98700 nM | 359 nM | 957 nM |
| CN(CCCNc1ccnc2cc(Cl)ccc12)C(=O)c1ccc2c(c1)OCO2 | > 10000 nM | 249 nM | 214 nM |
| CCc1c(C(=O)N2CCN(C(=O)CCl)C(C)C2)cnn1-c1nc(-c2ccc(Br)cc2)cs1 (stereo not given) | > 8660 nM | 656 nM | 481 nM |
| CCCCOc1ccc(C2C3CCCC=C3C(C#N)=C(N)C2(C#N)C#N)cc1 (stereo not given) | 57700 nM | 3470 nM | 1480 nM |
| FC(F)(F)c1cccc(C=NNc2nc3ccccc3[nH]2)c1 | 63200 nM | 94.6 nM | 115 nM |
| COc1ccc(-c2ccc(C=C3C(=O)NC(=S)NC3=O)o2)cc1Cl | > 10000 nM | > 1040 nM | > 1250 nM |

| SMILES | CC50 [1] | EC50 (Plasmodium falciparum [2]) | EC50 (Plasmodium falciparum [3]) |
| --- | --- | --- | --- |
| COc1ccc(C2=CC(=Cc3cccc(OC)c3OC)C(=O)O2)cc1OC | > 100000 nM | 4760 nM | 332 nM |
| COC(C(=NO)c1ccc(Cl)cc1)c1ccccc1 (stereo not given) | > 10000 nM | > 912 nM | > 1610 nM |
| Cc1ccc(NC=C2C(=O)NC(=S)NC2=O)cc1 | > 100000 nM | > 12500 nM | > 9490 nM |
| C[C@H]1[C@@H](O)O[C@@H]2O[C@@]3(C)CC[C@H]4[C@H](C)CC[C@@H]1[C@@]24OO3 [ARTENIMOL] | 44900 nM | 11.8 nM | 7.1 nM |
| COc1cccc(-c2ccc(O)c(CN(C)C3CCCCC3)c2)n1 | > 13000 nM | 1150 nM | 90.3 nM |
| CN(C)CC(C)(C)CNCc1cc(-c2ccccc2)ccc1O | 38000 nM | 66.1 nM | 6.53 nM |
| CN1CCN(NC=C2C(=O)N(c3nc4ccccc4s3)N=C2c2ccccc2)CC1 | > 100000 nM | > 12500 nM | 2300 nM |
| CCOC(=O)C1=C(C)NC2=C(C(=O)CC(c3ccc(OC)c(OC)c3)C2)C1c1ccc(Cl)c(Cl)c1 (stereo not given) | > 100000 nM | 229 nM | 105 nM |
| CCc1c(C)c(C#N)c2nc3ccccc3n2c1NCc1ccco1 | > 100000 nM | 271 nM | 333 nM |
| COc1cc(NC(C)CCCN(Cc2ccc(Cl)cc2)C(=O)Nc2ccc(Cl)cc2Cl)c2ncccc2c1 (stereo not given) | 5600 nM | 416 nM | < 17.1 nM |
| COc1cc(NC(C)CCCN(Cc2ccc(N(C)C)cc2)C(=O)C(Cl)Cl)c2ncccc2c1 (stereo not given) | > 6790 nM | 948 nM | 66.6 nM |
| Cc1c(-c2ccccc2)c2ccccc2n1CCc1ccc(C)[n+](C)c1 | > 100000 nM | 647 nM | 690 nM |
| Cc1ccc(-c2c[n+](Cc3cccc(C)c3)c3n2CCC3)cc1 | 20600 nM | 568 nM | 493 nM |
| CN(CCCNc1ccnc2cc(Cl)ccc12)C(=O)c1ccc(F)cc1 | > 10000 nM | 127 nM | 212 nM |
| O=C1c2cccc(N3CCN(Cc4cccn4-c4nccs4)CC3)c2C(=O)N1Cc1ccc(Cl)cc1 | > 100000 nM | 5470 nM | > 12500 nM |
| CC(=NNC(=S)NN)c1ccccn1 | > 10000 nM | 1370 nM | 386 nM |
| O=C(Nc1ccc(C2=NCCN2)cc1)c1ccc(NC(=O)c2ccc(C3=NCCN3)cc2)cc1 | > 10000 nM | 81.9 nM | 13.5 nM |
| COc1ccc(OC)c(C2CC(=O)C3=C(C2)NC(=O)CC3c2ccc(OC)c(OC)c2)c1 (stereo not given) | > 100000 nM | 616 nM | 118 nM |
| Cc1ccc2nc3c(c(Nc4ccc(N(C)C)cc4)c2c1)CCC3 | 19800 nM | 1790 nM | 950 nM |
| CC1(C)CC(=O)C2=C(C1)NC(=O)CC2c1ccc(C(C)(C)C)cc1 (stereo not given) | > 10000 nM | > 1250 nM | > 1010 nM |
| CN(Cc1ccccc1)C(=O)CCNS(=O)(=O)c1cc(Br)cnc1N | > 10000 nM | 614 nM | 355 nM |
| O=[N+]([O-])c1ccc(C=NNc2nc(Nc3ccccc3)nc(Nc3ccccc3)n2)o1 | 20700 nM | 625 nM | 454 nM |
| CN(C)CCNC(=O)c1ccc(-c2cccc3c2sc2ccccc23)nc1N1CCN(CCO)CC1 | 5320 nM | 388 nM | 452 nM |
| CN(CCCNc1ccnc2cc(Cl)ccc12)C(=O)COc1ccc(Cl)cc1 | 20300 nM | 59.2 nM | 78.5 nM |

| SMILES | CC50 [1] | EC50 (Plasmodium falciparum [2]) | EC50 (Plasmodium falciparum [3]) |
| --- | --- | --- | --- |
| CN1CCN=C1c1ccc(NC(=O)c2ccc(C(=O)Nc3ccc(C4=NCCN4C)cc3)c([N+](=O)[O-])c2)cc1 | > 10000 nM | 72.5 nM | 9.13 nM |
| COc1cc2c(cc1OC)C(=NN=C1NC(C)(C)Cc3ccccc31)NC(C)(C)C2 | > 10000 nM | 1040 nM | > 1250 nM |
| CCCc1cc2c(=O)c(-c3cc4ccccc4o3)coc2cc1OC(C)C(=O)OCC (stereo not given) | > 10000 nM | > 1170 nM | > 1250 nM |
| Cc1ccc(S(=O)(=O)N2CCN(C(=O)c3ccccc3)C2c2ccccc2)cc1 (stereo not given) | 10600 nM | > 12500 nM | 6290 nM |
| COc1cc(C=NNc2nc3ccccc3[nH]2)ccc1O | 43100 nM | 205 nM | 307 nM |
| c1ccc2c(NCCc3c[nH]cn3)c3ccccc3nc2c1 | 23300 nM | 1730 nM | 2460 nM |
| C1CCC(CN2CCc3nc(N4CCCCC4)sc3C2)CC1 | > 10000 nM | 254 nM | 83.2 nM |
| O=C(Nc1ccc(N2CCCCC2)cc1)N1CCc2nc[nH]c2C1c1ccc(Cl)cc1 (stereo not given) | > 5040 nM | 640 nM | 239 nM |
| O=C(Nc1ccon1)c1cc(-c2cccnc2)nc2ccc(Cl)cc12 | > 100000 nM | 1500 nM | 606 nM |
| Cc1ccc2[nH]c3c(NCCc4ccccc4F)ncnc3c2c1 | 16500 nM | 835 nM | 843 nM |
| O=C(Nc1cc(C(F)(F)F)cc(C(F)(F)F)c1)Nc1ccc(Cl)c(Cl)c1 | 6570 nM | 814 nM | 927 nM |
| c1ccc(-c2ccnc3c2ccc2c(-c4ccccc4)ccnc23)cc1 | > 100000 nM | 329 nM | 430 nM |
| Nc1cc(C(=O)Nc2ccc(C3=NCCCN3)cc2)ccc1C(=O)Nc1ccc(C2=NCCCN2)cc1 | > 100000 nM | 190 nM | 123 nM |
| c1cn2c(-c3ccc(N4CCOCC4)cc3)cnc2c(NCc2ccc3c(c2)OCO3)n1 | > 10000 nM | > 927 nM | > 1250 nM |
| COc1ccc(-[n+]2cc(-c3ccc(Br)cc3)n3c2SCCC3)cc1 | > 100000 nM | 609 nM | 172 nM |
| C=CCc1cc([N+](=O)[O-])cc2c1OC1(C=C2)N(c2ccccc2)c2ccccc2C1(C)C (stereo not given) | > 10000 nM | 396 nM | 885 nM |
| CC(C)=CCC/C(C)=C/CCC(C)NCCN1CCNCC1 (stereo not given) | > 10000 nM | > 1100 nM | 911 nM |
| C[n+]1ccc(/C=C/c2ccccc2F)c2ccccc21 | > 10000 nM | 65.3 nM | < 5.24 nM |
| COc1ccc(CNCCN2CCN(c3ccccc3)C[C@@H]2Cc2ccc(O)cc2)cc1 | > 10000 nM | 52.1 nM | 54.9 nM |
| Cc1ccc(Cn2c(N3CCC(C(=O)NCc4ccccn4)CC3)nc3ccccc32)cc1 | > 100000 nM | 484 nM | 185 nM |
| CC(Cc1ccccc1)NCCCCCNC(C)Cc1ccccc1 (stereo not given) | 5320 nM | 238 nM | 503 nM |
| CCCc1c(CC)c(=N)c2ccccc2n1C | > 100000 nM | 762 nM | 1140 nM |
